These results are taken from patent US20090221436A1, “PROCESS FOR DETERMINING TARGET FUNCTION AND IDENTIFYING DRUG LEADS” (priority 2000, published 2009).

Assay [1] addresses T1, P38 MAP kinase (Homo sapiens, UniProt Q16539).
T1 construct: purchased Sigma
The assay is described as follows: HPLC based Chemical Array Assay: protein-bound compounds separated from free compounds, UV and mass spectrum of protein fraction. Particulars: for identity by mass spectrum of the compound extracted from the mixture and released from the protein: 5 uM P38 MAP kinase + 5 uM mixture of Quinine and 86002, Diol column. Type of assay: binding. Here is the method:
(§1) Drug-like chemical compounds representing a collection of drug-like chemical scaffolds (Sigma-Aldrich, ICN, Calbiochem) were weighed and mixed to a final concentration of 20 uM each in 50 mM ammonium acetate pH 7, 10% methanol. 1 uM to 20 uM tubulin or P38 MAP kinase (Sigma) were dispensed into HPLC low volume sample cuvettes (Waters) and mixed with 0.5 uM to 20 uM compounds.
(§2) The compounds were eluted using an acetonitrile gradient past a UV detector and into a TOF mass spectrometer (Micromass LCT). […] In other mass spectrometry instruments, fragmentation can be achieved in a collision cell. The fragmentation pattern which is characteristic for each compound consists of the larger parent peak and other peaks representing fragments of the chemical compound or their isotopes. […] Alternatively, one or more characteristic isotope(s) of the parent peak representing the molecular weight of the compound was compared with the standard to identify the compound that bound the protein target. In another alternative analysis, the parent peak representing the molecular weight of the compound was itself compared with the standard to identify the compound. Sometimes, the combination of these methods was also used to identify the compound.

Assay [2] addresses T1, P38 MAP kinase. Particulars: stated as a known property of the ligand; cited from earlier work.
Another assay has as its system tubulin. The assay is described as follows: HPLC based Chemical Array Assay: protein-bound compounds separated from free compounds, UV and mass spectrum of protein fraction. The class given is binding. The conditions noted are these: 10 compound mixture 0.5 uM each, tubulin 0, 5 and 20 uM, GFF II column. Here is the method:
as §1, §2

T1 sequence (Q16539 whole entry): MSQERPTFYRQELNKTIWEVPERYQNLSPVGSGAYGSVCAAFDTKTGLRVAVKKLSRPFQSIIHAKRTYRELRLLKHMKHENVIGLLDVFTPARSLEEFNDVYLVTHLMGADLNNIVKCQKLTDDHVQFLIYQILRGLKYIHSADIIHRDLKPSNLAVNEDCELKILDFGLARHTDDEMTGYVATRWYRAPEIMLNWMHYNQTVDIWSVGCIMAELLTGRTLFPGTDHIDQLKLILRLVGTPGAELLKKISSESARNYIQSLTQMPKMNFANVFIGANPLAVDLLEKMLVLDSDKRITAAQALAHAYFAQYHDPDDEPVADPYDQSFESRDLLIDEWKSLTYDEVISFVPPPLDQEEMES

Turning to `C=C[C@H]1CN2CC[C@H]1C[C@H]2[C@H](O)c1ccnc2ccc(OC)cc12.Cl` [quinine, quinine monohydrochloride], at P38 MAP kinase [1], the “identity by mass spectrum of the compound extracted from the mixture and released from the protein” value is reported as “not quinine”.

`Fc1ccc(-c2nc3n(c2-c2ccncc2)CCS3)cc1` [SKB86002]: the “affinity for the P38 MAP kinase protein target” value on P38 MAP kinase [2] was “micromolar affinity”. At P38 MAP kinase [1] (5 uM P38 MAP kinase + 5 uM compound alone, Diol column), the “mass spectrum of the collected protein fraction compared with the standard” value was “corresponded to the 86002 standard”. The “identity by mass spectrum of the compound extracted from the mixture and released from the protein” value on P38 MAP kinase [1] was “identified as 86002”. Further, the “reduction of the compound's UV peak (unbound compound) with increasing P38” value at P38 MAP kinase [1] (2-compound mixture 5 uM each, P38 0, 2.5, 5 and 10 uM, Diol column) was “concentration dependant reduction”; at P38 MAP kinase [1] (10 compound mixture 0.5 uM each, P38 0, 3.5 and 5 uM, GFF II column), “concentration dependent reduction”. Also, the “level of the compound's characteristic peaks in the mass spectrum of the protein fraction” value on P38 MAP kinase [1] (10 compound mixture 0.5 uM each, GFF II column) is reported as “at a level far higher than other peaks”. The “level of the compound's characteristic peak in the mass spectrum of the protein fraction” value on P38 MAP kinase [1] (100 compound mixture 20 uM each, P38 2 uM, GFF II column) is given as “at a level far higher than other peaks”. Besides, in the assay with tubulin, the “reduction of the compound's UV peak (unbound compound) with increasing tubulin” value is “negligible reduction”.
